# Values quoted from earlier work in patent US8017143B2, “Coating agent for drug releasing stent, preparation method thereof and drug releasing stent coated therewith” (Taewoong Medical Co., Ltd, priority 2007, dated 2011).
# Conditions: esophageal, prostate, rectal, bladder cancer, hepatic, central nervous system and brain tumors
structure (smiles),measurement,value
CC(=O)O[C@H]1C(=O)[C@@]2(C)[C@H]([C@H](OC(=O)c3ccccc3)[C@]3(O)C[C@H](OC(=O)[C@H](O)[C@@H](NC(=O)c4ccccc4)c4ccccc4)C(C)=C1C3(C)C)[C@]1(OC(C)=O)CO[C@@H]1C[C@@H]2O [taxol],therapeutic effects,excellent therapeutic effects
